The structures appear in SMILES notation.

Data on eleven compounds can be found in US6268385A, “Dry blend pharmaceutical formulations” (priority 2000, dated 2001).

Holding throughout (format): physicochemical
A short description of series [1]: FT-Raman quantitation of 5-/6-methoxy isomers in omeprazole API, partial least squares. The procedure: Nicolet Instruments Corp., Madison, Wis.). The present method is conducted in three steps: preparation of standards, establishing a standard curve, and analysis of samples. Typically, a minimum of 4 to 5 standards are prepared. […] In addition to the USP standard, it is necessary to use a standard which is very low in 5-methoxy isomer concentration, preferably in pure form, one which has a high concentration of 5-methoxy isomer such as in the range of about 40%, and a series of at least two other standards distributed over the range from about 5% to about 25%. To establish the standard curve, each standard is run in at least triplicate using the step and repeat sampling device operating in the continuous mode with 15 replicates for each standard preparation and 500 scans per replicate, using a resolution of 2 cm^-1, and a laser power of about 0.7 watt, under instrumental parameters set to generate an acceptable S/N. […] Using such an algorithm, the area percent of the 6-methoxy isomer of each standard having both the 5- and 6-methoxy isomer is determined. The standard deviation for each set of replicates is less than about 0.7% and the average standard deviation for the average of all runs and replicates of a given standard is less than about 0.7% or the resulting data should be investigated. […] Correlation coefficients should be at or above about 0.98 among all standards. Each API sample is then analyzed using the method similar to that described for establishing the standards, except at least triplicate preparations with at least five replicates per sample preparation, and at least 100 scans per replicate with triplicate preparations per sample. Using the above-referenced partial least squares analysis, the percent 6-methoxy isomer, and thus the percent 5-methoxy isomer is determined for each scan and the average of the 15 spectra is calculated. The standard deviation (SD) for each set of replicates is less than about 1.0%, and the average standard deviation of all runs and replicates of a given sample is less than about 1.0%. If the standard deviation is above 1.0%, the results should be investigated. High standard deviation values are an indication of variability which may be caused by small amounts of sample burning. If this is suspected, the preparation should be run again.

The nature of series [2]: FT-Raman determination of 5-/6-methoxy isomers in omeprazole API, classical least squares. The settings on record: commercial API lots. The procedure: This method also used an FT-Raman spectrometer (Nicolet Nexus 670 with an FT-Raman accessory, 1064 nm laser, and a step and repeat sampling device). This method, too, is conducted in three stages: preparation of standards, establishing a standard curve, and analysis of samples. Typically a minimum of 4 to 5 standards are prepared. The present FT-Raman method for API and drug product analysis uses the same method set forth above to prepare and establish the standard curve, including preferred aspects, as the method set forth for the more quantitative API method relative to the number of preparations, replicates, and scans per replicate of each standard, resolution, sampling device, deconvolution of standard peaks, determination of peak area, and standard deviation for each set of replicates and the average of all runs and replicates of a given standard. […] In general, the method is performed by a ratio of a peak related to the 6-methoxy isomer (about 1627 cm^-1) to a suitable internal omeprazole band (about 1587 cm^-1). […] Correlation coefficients of the standard curve are at or above about 0.95 among all standards. […] Using the above-referenced corrected classical least squares analysis, the percent 6-methoxy isomer, and thus the percent 5-methoxy isomer, is determined for each scan, and the average of the 15 spectra is calculated.

Series [3] in a line: Solubility assessment as a function of HPβCD concentration. The procedure: Solubility studies were performed by the addition of a known mass of 5(6)-methoxy-2-[[(4-methoxy-3,5-dimethyl-2-pyridinyl)-methyl]sulfinyl]-1H- benzimidazole and/or HP CD to a given volume of solvent system. Solubilities were determined by observation, as the maximum concentration at which 5(6)-methoxy-2-[[(4-methoxy-3,5-dimethyl-2-pyridinyl)-methyl]sulfinyl]-1H- benzimidazole completely dissolved. Additionally, concentrations of 5(6)-methoxy-2-[[(4-methoxy-3,5-dimethyl-2-pyridinyl)-methyl]sulfinyl]-1H- benzimidazole and HP C D at set molar ratios were solubilized in systems of high pH (adjusted as high as 12.2, with 1N NaOH), the pH was adjusted (using 2N HCl) in a stepwise downward manner until precipitation occurred.
The solubility of 5(6)-methoxy-2-[[(4-methoxy-3,5-dimethyl-2-pyridinyl)-methyl]sulfinyl]-1H- benzimidazole was assessed as a function of HPβCD concentration in water.
The procedure according to Example 86 was repeated except that water with a borate buffer (pH of 8) was employed.
The procedure according to Example 86 was repeated except that water with a phosphate buffer (pH of 11) was employed.

Setting [4] is: commercial API lots, listed as 03.
[5] abbreviates: commercial API lots, listed as 02.
The mark [6] stands for this setting: commercial API lots, listed as 01.

`COc1ccc2[nH]c([S+]([O-])Cc3ncc(C)c(OC)c3C)nc2c1` (centres unmarked) [Example 37, (5)6-methoxy-2-[[(4-methoxy-3,5-dimethyl-2-pyridinyl)-methyl]sulfinyl]-1H-benzimidazole]: in series [1] (standards), the “% 5-isomer” value worked out at 12.246% and the “% 6-isomer” value was 87.754%.

`COc1ccc2[nH]c([S+]([O-])Cc3ncc(C)c(OC)c3C)nc2c1` (centres unmarked) [Example 36, (5)6-methoxy-2-[[(4-methoxy-3,5-dimethyl-2-pyridinyl)-methyl]sulfinyl]-1H-benzimidazole]: in series [1] (standards), the “% 5-isomer” value is listed as 16.005% and the “% 6-isomer” value was found to be 83.995%.

Regarding `COc1ccc2[nH]c([S+]([O-])Cc3ncc(C)c(OC)c3C)nc2c1` (centres unmarked) [Lot 03], in series [2] (listed as 03), the “% 5-isomer” value is given as 6.40% and the “% 6-isomer” value is recorded as 93.60%. In addition, in series [1] (setting [4]), the “% 5-isomer” value stood at 7.61% and the “% 6-isomer” value was determined as 92.39%.

As for `COc1ccc2[nH]c([S+]([O-])Cc3ncc(C)c(OC)c3C)nc2c1` (centres unmarked) [USP], in series [1] (standards), the “% 5-isomer” value is listed as 7.250% and the “% 6-isomer” value is on record as 92.750%.

In the case of `COc1ccc2[nH]c([S+]([O-])Cc3ncc(C)c(OC)c3C)nc2c1` (centres unmarked) [Example 44, (5)6-methoxy-2-[[(4-methoxy-3,5-dimethyl-2-pyridinyl)-methyl]sulfinyl]-1H-benzimidazole], in series [1] (standards), the “% 5-isomer” value was 41.258% and the “% 6-isomer” value is on record as 58.742%.

Turning to `COc1ccc2nc([S+]([O-])Cc3ncc(C)c(OC)c3C)[nH]c2c1` (centres unmarked) [Example 1, 6-methoxy-2-[[(4-methoxy-3,5-dimethyl-2-pyridinyl)-methyl]sulfinyl]-1H-benzimidazole], in series [1] (standards), the “% 5-isomer” value was 5.875% and the “% 6-isomer” value was 94.125%.

On to `COc1ccc2nc([S+]([O-])Cc3ncc(C)c(OC)c3C)[nH]c2c1` (centres unmarked) [Example 1a, 6-methoxy-2-[[(4-methoxy-3,5-dimethyl-2-pyridinyl)methyl]sulfinyl]-1H-benzimidazole], for which, in series [1] (standards), the “% 5-isomer” value is given as 0.000% and the “% 6-isomer” value is given as 100.000%.

For `COc1ccc2[nH]c([S+]([O-])Cc3ncc(C)c(OC)c3C)nc2c1` (centres unmarked) [5(6)-methoxy-2-[[(4-methoxy-3,5-dimethyl-2-pyridinyl)-methyl]sulfinyl]-1H-benzimidazole], the “solubility as a function of HPβCD concentration” value in series [3] (borate buffer, pH of 8) is reported as “increase linearly”; in series [3] (phosphate buffer, pH of 11) it was “increase linearly”; in series [3] (water), “increase linearly”.

Take `COc1ccc2[nH]c([S+]([O-])Cc3ncc(C)c(OC)c3C)nc2c1` (centres unmarked) [Example 41, (5)6-methoxy-2-[[(4-methoxy-3,5-dimethyl-2-pyridinyl)-methyl]sulfinyl]-1H-benzimidazole]: in series [1] (standards), the “% 5-isomer” value is listed as 16.414% and the “% 6-isomer” value was found to be 83.587%.

As to `COc1ccc2[nH]c([S+]([O-])Cc3ncc(C)c(OC)c3C)nc2c1` (centres unmarked) [Lot 02], in series [2] (listed as 02), the “% 5-isomer” value was determined as 6.56% and the “% 6-isomer” value is listed as 93.44%. In series [1] (setting [5]), the “% 5-isomer” value is listed as 8.02% and the “% 6-isomer” value stood at 91.98%.

`COc1ccc2[nH]c([S+]([O-])Cc3ncc(C)c(OC)c3C)nc2c1` (centres unmarked) [Lot 01]: in series [2] (listed as 01), the “% 5-isomer” value is 6.14% and the “% 6-isomer” value is recorded as 93.86%. For the same compound, in series [1] (setting [6]), the “% 5-isomer” value was determined as 7.50% and the “% 6-isomer” value amounted to 92.50%.
